Target: T1, Full-length glucokinase (beta cell isoform) (Homo sapiens, UniProt P35557)
T1 construct: Full-length glucokinase (beta cell isoform) was His-tagged at N-terminus; His tag (N); made in house
T1 sequence (P35557 1-465): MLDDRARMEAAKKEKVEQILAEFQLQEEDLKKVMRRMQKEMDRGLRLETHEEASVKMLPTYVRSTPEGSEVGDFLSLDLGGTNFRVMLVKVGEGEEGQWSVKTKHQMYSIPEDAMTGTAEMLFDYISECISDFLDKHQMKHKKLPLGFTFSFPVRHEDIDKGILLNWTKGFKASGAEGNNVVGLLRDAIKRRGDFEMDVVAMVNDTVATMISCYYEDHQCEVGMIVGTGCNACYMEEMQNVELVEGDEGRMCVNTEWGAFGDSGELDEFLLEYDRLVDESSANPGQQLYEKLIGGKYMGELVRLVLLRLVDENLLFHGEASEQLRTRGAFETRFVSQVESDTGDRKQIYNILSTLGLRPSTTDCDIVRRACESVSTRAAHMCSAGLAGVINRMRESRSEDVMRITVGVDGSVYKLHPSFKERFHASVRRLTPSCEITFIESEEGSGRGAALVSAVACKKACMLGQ
Assay: Glucokinase biochemical assay (PK/LDH-coupled, NADH depletion at 340 nm): % activation, EC50, % max activation
Details: 5 mM glucose; for activation at 10 µM: read-out: % Activation at 10 uM; for EC50: GK activation, read-out: EC50; for Emax: fitted maximum activation, read-out: % Max Activation
How it was run: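 N-terminally His-tagged full-length human beta-cell glucokinase, room temperature, 5 mM glucose, 1 mM ATP, PK/LDH-coupled with 0.7 mM NADH, 1% DMSO final. Initial velocity from the 200–900 s slope of A340 decline. % activation = (Va/Vo−1)×100, measured across compound concentrations.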

[1] = 10 uM compound, % Activation=(Va/Vo−1)×100

Row | activation at 10 µM [1] [%] | EC50 [nM] | Emax [%] | % Activation at 10 uM [1] [%] | SMILES
1 | 218 | 340 | 224 |  | CN(C)S(=O)(=O)c1cc(F)c(Oc2cc(C(=O)Nc3cnn(C)n3)cc3c2CC(C)(C)O3)cc1F [Example 138, 4-(4-Dimethylsulfamoyl-2,5-difluoro-phenoxy)-2,2-dimethyl-2,3-dihydro-benzofuran-6-carboxylic acid (2-methyl-2H-[1,2,3]triazol-4-yl)-amide]
2 | 138 | 1400 | 141 |  | Cn1ccc(NC(=O)c2cc(Oc3ccc(C(=O)N4CCOCC4)cc3F)c3c(c2)OC(C)(C)C3)n1 [Example 41, 4-[2-Fluoro-4-(morpholine-4-carbonyl)-phenoxy]-2,2-dimethyl-2,3-dihydro-benzofuran-6-carboxylic acid(1-methyl-1H-pyrazol-3-yl)-amide]
3 | 115 | 470 | 106 |  | CN(C)C(=O)c1ccc(Oc2cc(C(=O)Nc3ccon3)cc3c2CC(C)(C)O3)cc1 [Example 158, 4-(4-Dimethylcarbamoyl-phenoxy)-2,2-dimethyl-2,3-dihydro-benzofuran-6-carboxylic acid isoxazol-3-ylamide]
4 | 140 | 63 | 144 |  | COCC1(C)Cc2c(Oc3ccc(C(=O)N4CCC4)c(F)c3)cc(C(=O)Nc3ccn(C)n3)cc2O1 (stereo not shown) [Example 242, 4-[4-(Azetidine-1-carbonyl)-3-fluoro-phenoxy]-2-methoxymethyl-2-methyl-2,3-dihydro-benzofuran-6-carboxylic acid (1-methyl-1H-pyrazol-3-yl)-amide]
5 | 292 | 210 | 272 |  | Cn1ncc(NC(=O)c2cc(Oc3ccc(S(=O)(=O)C4CC4)cc3)c3c(c2)OC(C)(C)C3)n1 [Example 131, 4-(4-Cyclopropanesulfonyl-phenoxy)-2,2-dimethyl-2,3-dihydro-benzofuran-6-carboxylic acid (2-methyl-2H-[1,2,3]triazol-4-yl)-amide]
6 | 81.4 | 1000 | 91 |  | Cc1cc2c(Oc3ccc(S(C)(=O)=O)cc3)cc(C(=O)Nc3ccc(CO)cn3)cc2o1 [Example 266, N-(5-(Hydroxymethyl)pyridin-2-yl)-2-methyl-4-(4-(methylsulfonyl)-phenoxy)-benzofuran-6-carboxamide]
7 | 146 | 5000 | 263 |  | Cn1ncc(NC(=O)c2cc(OC3CN(S(C)(=O)=O)C3)c3c(c2)OC(C)(C)C3)n1 [Example 194, 4-(1-Methanesulfonyl-azetidin-3-yloxy)-2,2-dimethyl-2,3-dihydro-benzofuran-6-carboxylic acid (2-methyl-2H-[1,2,3]triazol-4-yl)-amide]
8 | 181 | 46 | 162 |  | Cn1ccc(NC(=O)c2cc(Oc3ccc(S(=O)(=O)N4CCC4)cc3)c3c(c2)OC(C)(C)C3)n1 [Example 125, 4-[4-(Azetidine-1-sulfonyl)-phenoxy]-2,2-dimethyl-2,3-dihydro-benzofuran-6-carboxylic acid (1-methyl-1H-pyrazol-3-yl)-amide]
9 | 61.1 | > 10000 |  |  | Cn1ccc(NC(=O)c2cc(OCc3ccccc3)c3c(c2)OC(C(F)F)C3)n1 (stereo not shown) [Example 222, 4-Benzyloxy-2-difluoromethyl-2,3-dihydro-benzofuran-6-carboxylic acid (1-methyl-1H-pyrazol-3-yl)-amide]
10 | 32.1 |  |  |  | Cc1cc2c(Oc3ccc(S(C)(=O)=O)cc3)cc(C(=O)Nc3ccc(C(F)(F)F)cn3)cc2o1 [Example 253, 2-Methyl-4-(4-(methylsulfonyl)phenoxy)-N-(5-(trifluoromethyl)-pyridin-2-yl)benzofuran-6-carboxamide]
11 | 131 | 2400 | 121 |  | CCc1cc2c(Oc3ccc(S(C)(=O)=O)cc3)cc(C(=O)Nc3ccc(C)cn3)cc2o1 [Example 274, 2-Ethyl-N-(5-methylpyridin-2-yl)-4-[4-(methylsulfonyl)-phenoxy]-1-benzofuran-6-carboxamide]
12 | 135 | 38 | 112 |  | Cc1ccc(NC(=O)c2cc(Oc3ccc(S(=O)(=O)N(C)C)cc3)c3c(c2)OC(C)(C)C3)nc1 [Example 128, 4-(4-Dimethylsulfamoyl-phenoxy)-2,2-dimethyl-2,3-dihydro-benzofuran-6-carboxylic acid (5-methyl-pyridin-2-yl)-amide]
13 | 144 | 4200 | 183 |  | COCc1nnc(NC(=O)c2cc(Oc3ccc(S(C)(=O)=O)cc3)c3c(c2)OC(C)(C)C3)s1 [Example 30, 4-(4-Methanesulfonyl-phenoxy)-2,2-dimethyl-2,3-dihydro-benzofuran-6-carboxylic acid(5-methoxymethyl-[1,3,4]thiadiazol-2-yl)-amide]
14 | 35 |  |  |  | CN(C)C(=O)c1ccc(Oc2cc(C(=O)Nc3ccc(CNC4CC4)cn3)cc3c2CC(C)(C)O3)cc1F [Example 147, 4-(4-Dimethylcarbamoyl-3-fluoro-phenoxy)-2,2-dimethyl-2,3-dihydro-benzofuran-6-carboxylic acid (5-cyclopropylaminomethyl-pyridin-2-yl)-amide]
15 | 101 | 8700 | 144 |  | CC1Cc2c(cc(Oc3ccc(S(C)(=O)=O)cc3)cc2C(=O)Nc2ccccn2)O1 (stereo not shown) [Example 1, 6-(4-Methanesulfonyl-phenoxy)-2-methyl-2,3-dihydrobenzofuran-4-carboxylic acid pyridin-2-ylamide]
16 | 72.7 | 3080 | 94.7 |  | Cc1ccc(NC(=O)c2cc(Oc3ccc(S(C)(=O)=O)cc3)c3ccoc3c2)nc1 [Example 9, 4-(4-Methanesulfonyl-phenoxy)-benzofuran-6-carboxylic acid(5-methyl-pyridin-2-yl)-amide]
17 | 94.6 | 240 | 89 |  | Cc1ccc(NC(=O)c2cc(Oc3ccc(S(=O)(=O)N(C)C)c(F)c3)c3cc(C)oc3c2)nc1 [Example 304, 4-{4-[(Dimethylamino)sulfonyl]-3-fluorophenoxy}-2-methyl-N-(5-methyl-pyridin-2-yl)-1-benzofuran-6-carboxamide]
18 | 188 | 390 | 184 |  | Cn1ccc(NC(=O)c2cc(Oc3ccc(S(C)(=O)=O)c(F)c3)c3c(c2)OC(C)(CO)C3)n1 (stereo not shown) [Example 232, 4-(3-Fluoro-4-methanesulfonyl-phenoxy)-2-hydroxymethyl-2-methyl-2,3-dihydro-benzofuran-6-carboxylic acid (1-methyl-1H-pyrazol-3-yl)-amide]
19 | 139 | 72 | 131 |  | Cn1ccc(NC(=O)c2cc(Oc3cc(F)c(C(=O)N4CCC4)c(F)c3)c3c(c2)OC(C)(C)C3)n1 [Example 110, 4-[4-(Azetidine-1-carbonyl)-3,5-difluoro-phenoxy]-2,2-dimethyl-2,3-dihydro-benzofuran-6-carboxylic acid (1-methyl-1H-pyrazol-3-yl)-amide]
20 | 78 | 3700 | 83 |  | Cc1ccc(NC(=O)c2cc(Oc3ccc(C(F)F)cc3)c3cc(C(=O)N(C)C)oc3c2)nc1 [Example 323, 4-[4-(Difluoromethyl)phenoxy]-N^2,N^2-dimethyl-N^6-(5-methylpyridin-2-yl)-1-benzofuran-2,6-dicarboxamide]
21 | 69.2 | > 10000 |  |  | Cn1ccc(NC(=O)c2cc(Oc3cc(F)ccc3S(C)(=O)=O)c3c(c2)OC(C)(CO)C3)n1 (stereo not shown) [Example 235, 4-(5-Fluoro-2-methanesulfonyl-phenoxy)-2-hydroxymethyl-2-methyl-2,3-dihydro-benzofuran-6-carboxylic acid (1-methyl-1H-pyrazol-3-yl)-amide]
22 | 105 | 1600 | 135 |  | CN(C)C(=O)c1ccc(Oc2cc(C(=O)Nc3ccn(C)n3)cc3c2CC(C)(C)O3)nc1 [Example 162, 6-[2,2-Dimethyl-6-(1-methyl-1H-pyrazol-3-ylcarbamoyl)-2,3-dihydro-benzofuran-4-yloxy]-N,N-dimethyl-nicotinamide]
23 |  |  |  | 17.7 | Cc1ccc(NC(=O)c2cc(OCc3ccccc3Cl)c3c(c2)OC(C)(C)CC3)nc1 [Example 374, 5-(2-Chloro-benzyloxy)-2,2-dimethyl-chroman-7-carboxylic acid(5-methyl-pyridin-2-yl)-amide]
24 | 237 | 120 | 236 |  | CCS(=O)(=O)c1ccc(Oc2cc(C(=O)Nc3ccn(C)n3)cc3c2CC(C)(C)O3)cc1F [Example 136, 4-(4-Ethanesulfonyl-3-fluoro-phenoxy)-2,2-dimethyl-2,3-dihydro-benzofuran-6-carboxylic acid (1-methyl-1H-pyrazol-3-yl)-amide]

Reference: patent US8119624B2, “Fused phenyl amido heterocyclic compounds” (Pfizer Inc., priority 2006, dated 2012)
